The text below walks through data of ChEMBL document CHEMBL4138256, “Design, Synthesis, and Biological Activity of 1,2,3-Triazolobenzodiazepine BET Bromodomain Inhibitors” (ACS Med Chem Lett, 2017).

Assay [1] addresses T1, Bromodomain-containing protein 4 (Homo sapiens, UniProt O60885).
Description: Inhibition of human His-tagged Brd4 bromodomain 2 expressed in Escherichia coli BL21 (DE3) preincubated for 30 mins followed by addition of biotinylated acetyl-histone H4 peptide and measured after 1 hr by AlphaScreen assay
Assay [2] has as its target T1, Bromodomain-containing protein 4. This is another data set of the same source.
Description: Inhibition of human His-tagged Brd4 bromodomain 1 expressed in Escherichia coli BL21 (DE3) preincubated for 30 mins followed by addition of biotinylated acetyl-histone H4 peptide and measured after 1 hr by AlphaScreen assay
Assay [3] concerns the target Bromodomain-containing protein 3 (Homo sapiens, UniProt Q15059). In words: Inhibition of human His-tagged Brd3 bromodomain 1 expressed in Escherichia coli BL21 (DE3) preincubated for 30 mins followed by addition of biotinylated acetyl-histone H4 peptide and measured after 1 hr by AlphaScreen assay. (Alpha assays give light when donor and acceptor beads are brought close together.)

Assay [4] concerns the target T2, Bromodomain-containing protein 2 (Homo sapiens, UniProt P25440). Nature of the assay: Inhibition of human His-tagged Brd2 bromodomain 1 expressed in Escherichia coli BL21 (DE3) preincubated for 30 mins followed by addition of biotinylated acetyl-histone H4 peptide and measured after 1 hr by AlphaScreen assay.
Target sequence in this assay (P25440 whole entry): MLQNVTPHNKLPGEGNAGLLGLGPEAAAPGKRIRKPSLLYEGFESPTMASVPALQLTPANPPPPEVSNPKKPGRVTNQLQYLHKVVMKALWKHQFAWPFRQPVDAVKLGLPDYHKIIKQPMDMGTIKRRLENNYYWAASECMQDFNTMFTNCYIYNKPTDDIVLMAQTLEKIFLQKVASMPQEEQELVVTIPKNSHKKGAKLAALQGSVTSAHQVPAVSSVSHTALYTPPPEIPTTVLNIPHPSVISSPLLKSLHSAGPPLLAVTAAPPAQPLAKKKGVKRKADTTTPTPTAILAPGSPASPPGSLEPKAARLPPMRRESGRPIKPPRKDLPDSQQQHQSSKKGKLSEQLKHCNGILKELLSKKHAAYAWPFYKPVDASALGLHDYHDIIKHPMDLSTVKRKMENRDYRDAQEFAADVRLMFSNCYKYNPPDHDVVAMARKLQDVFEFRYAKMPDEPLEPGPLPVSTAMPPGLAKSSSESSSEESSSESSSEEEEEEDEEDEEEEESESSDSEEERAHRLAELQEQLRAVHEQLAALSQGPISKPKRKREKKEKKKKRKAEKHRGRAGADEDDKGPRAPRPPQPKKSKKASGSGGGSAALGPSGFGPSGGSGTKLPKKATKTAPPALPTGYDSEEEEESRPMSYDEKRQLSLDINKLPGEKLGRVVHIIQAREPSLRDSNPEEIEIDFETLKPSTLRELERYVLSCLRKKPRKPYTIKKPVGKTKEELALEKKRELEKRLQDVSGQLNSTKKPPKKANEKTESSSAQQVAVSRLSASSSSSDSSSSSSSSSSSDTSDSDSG
For assay [5], the target named is T2, Bromodomain-containing protein 2. Nature of the assay: Inhibition of human His-tagged Brd2 bromodomain 2 expressed in Escherichia coli BL21 (DE3) preincubated for 30 mins followed by addition of biotinylated acetyl-histone H4 peptide and measured after 1 hr by AlphaScreen assay.
Target sequence in this assay (P25440 whole entry): as above
The nature of assay [6]: Antiproliferative activity against human MLL-AF9 cells after 72 hrs by Cell-TiterGlo assay. It counts as functional, cell-based. Particulars: MLL-AF9, 72 h.
Assay [7] can be described thus: Antiproliferative activity against mouse 148I cells after 72 hrs by Cell-TiterGlo assay. Format: functional, cell-based.
Assay [8] has as its system K562. In words: Antiproliferative activity against human K562 cells after 72 hrs by Cell-TiterGlo assay. It counts as functional, cell-based. The settings on record: K562, 72 h.
Assay [9] has as its system CCRF-CEM. In words: Antiproliferative activity against human CCRF-CEM cells after 72 hrs by Cell-TiterGlo assay. It counts as functional, cell-based.
For assay [10], the system named is MV4-11. Nature of the assay: Antiproliferative activity against human MV4-11 cells after 72 hrs by Cell-TiterGlo assay. Format: functional, cell-based. The settings on record: MV4-11, 72 h.
Assay [11] relates to RPMI-8226. Nature of the assay: Antiproliferative activity against human RPMI8226 cells after 72 hrs by Cell-TiterGlo assay. Format: functional, cell-based. The settings on record: RPMI-8226, 72 h.
In assay [12] the test system is HL-60. In words: Antiproliferative activity against human HL60 cells after 72 hrs by Cell-TiterGlo assay. It counts as functional, cell-based. The settings on record: HL-60, 72 h.
Assay [13] deals with Raji. In words: Antiproliferative activity against human Raji cells after 72 hrs by Cell-TiterGlo assay. It counts as functional, cell-based.
The test system of assay [14] is DOHH-2. Nature of the assay: Antiproliferative activity against human DOHH2 cells after 72 hrs by Cell-TiterGlo assay. It counts as functional, cell-based. The settings on record: DOHH-2, 72 h.
The test system of assay [15] is HEL 92.1.7. Nature of the assay: Antiproliferative activity against human HEL 92.1.7 cells after 72 hrs by Cell-TiterGlo assay. Format: functional, cell-based. The settings on record: HEL 92.1.7, 72 h.
Assay [16] in a line: Antiproliferative activity against mouse 494H cells after 72 hrs by Cell-TiterGlo assay. Format: functional, cell-based.
In assay [17] the test system is SUD4. Nature of the assay: Antiproliferative activity against human SU-DHL4 cells after 72 hrs by Cell-TiterGlo assay. Format: functional, cell-based. Particulars: SU-DHL-4, 72 h.
Assay [18] deals with T2, Bromodomain-containing protein 2.
Target sequence in this assay (P25440 whole entry, looked up): as the sequence (P25440 whole entry) above
Description: Binding affinity to His-tagged human Brd2 bromodomain 1 (1 to 473 residues) assessed as association rate constant by suface plasmon resonance assay
Assay [19] shares this target. This is another data set of the same source.
Target sequence in this assay (P25440 whole entry, looked up): as the sequence (P25440 whole entry) above
Description: Binding affinity to His-tagged human Brd2 bromodomain 2 (1 to 473 residues) assessed as association rate constant by surface plasmon resonance assay

Sequence of Bromodomain-containing protein 3 (Q15059 whole entry): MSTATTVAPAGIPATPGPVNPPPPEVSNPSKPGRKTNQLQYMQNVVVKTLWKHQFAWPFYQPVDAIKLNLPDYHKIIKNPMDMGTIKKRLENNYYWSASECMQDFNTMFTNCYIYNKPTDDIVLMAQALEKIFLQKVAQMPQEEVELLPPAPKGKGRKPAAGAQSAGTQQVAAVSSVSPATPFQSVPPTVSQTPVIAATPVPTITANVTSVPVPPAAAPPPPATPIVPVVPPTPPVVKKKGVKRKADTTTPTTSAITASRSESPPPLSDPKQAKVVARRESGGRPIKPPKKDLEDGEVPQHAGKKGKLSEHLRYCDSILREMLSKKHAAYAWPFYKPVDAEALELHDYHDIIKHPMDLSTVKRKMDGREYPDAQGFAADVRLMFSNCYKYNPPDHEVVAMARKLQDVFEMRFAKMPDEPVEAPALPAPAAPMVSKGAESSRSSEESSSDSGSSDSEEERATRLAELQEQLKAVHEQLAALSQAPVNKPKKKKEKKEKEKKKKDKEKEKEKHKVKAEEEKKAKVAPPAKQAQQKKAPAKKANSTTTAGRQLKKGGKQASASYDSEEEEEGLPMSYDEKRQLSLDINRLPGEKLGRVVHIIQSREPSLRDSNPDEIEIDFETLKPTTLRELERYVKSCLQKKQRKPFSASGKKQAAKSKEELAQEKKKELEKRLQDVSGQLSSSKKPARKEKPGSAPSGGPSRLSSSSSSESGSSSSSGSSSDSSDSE

As to `Cc1nnn2c1-c1ccc(C(O)C(F)(F)F)cc1N(c1ccc(Cl)cc1)CC2` (stereo not drawn), the figures for the IC50 in assay [1] and in assay [2] were 23 nM and 43 nM, respectively.
For `Cc1nnn2c1-c1ccccc1N(c1ccccc1)CC2`, the IC50 (in general, the concentration that gives 50% inhibition) in [1] was in the range of 12 to 21.5 nM; in assay [2], 28 to 39.4 nM.
Regarding `Cc1nnn2c1-c1ccc(C(=O)Nc3ccccc3)cc1N(c1ccc(Cl)cc1)CC2`, the IC50 in assay [3] was 14 nM.
For `Cc1nnn2c1-c1ccc(C(=O)N[C@H](C)c3ccccc3)cc1N(c1ccc(Cl)cc1)CC2`, in [3], the IC50 worked out at 13 nM.
Turning to `Cc1nnn2c1-c1ccc(-c3nn[nH]n3)cc1N(c1ccc(Cl)cc1)CC2`, the IC50 in [1] worked out at 2 nM; in [2] it was 3 nM.
Regarding `Cc1nnn2c1-c1ccc(C(N)=O)cc1N(c1ccc(Cl)cc1)CC2`, the IC50 is 2 nM in assay [1] and 6 nM in [2].
Turning to `Cc1nnn2c1-c1ccc(C(=O)N[C@@H](C)c3ccccc3)cc1N(c1ccc(Cl)cc1)CC2`, in assay [3], the IC50 was determined as 12 nM.
For `Cc1nnn2c1-c1ccccc1N(c1ccc(Cl)cc1)C[C@@H]2C`, the IC50 in [4] stood at 53 nM; in [5] it was 34 nM.
As to `Cc1nnn2c1-c1ccc(C(=O)NC(c3ccccc3)c3ccccc3)cc1N(c1ccc(Cl)cc1)CC2`, the IC50 came to 151 nM in assay [4], 44 nM in assay [5] and 39 nM in assay [3].
Consider `Cc1ccc(-c2ccc3c(c2)N(c2ccc(Cl)cc2)CCn2nnc(C)c2-3)cn1`, for which the IC50 in [1] was 7 nM; in assay [2] it was 16 nM; in assay [3], 10 nM.
For the molecule `Cc1nnn2c1-c1ccc(C(=O)NS(=O)(=O)c3ccccc3)cc1N(c1ccc(Cl)cc1)CC2`, the IC50 in assay [1] was 10 nM; in [4], 54 nM; in assay [5], 25 nM; in [2], 21 nM; in assay [3] it was 21 nM.
Regarding `Cc1nnn2c1-c1ccc(-c3cc[nH]n3)cc1N(c1ccc(Cl)cc1)CC2`, the IC50 in assay [1] came to 7 nM; in assay [2], 14 nM; in [3] it was 10 nM. The half-maximal effective concentration (EC50) (commonly the concentration needed to bring the measured effect to its halfway point) was 111 nM in assay [6]; 973 nM in assay [7]; above 10000 nM in [8]; 2220 nM in [9]; 200 nM in assay [10]; 495 nM in assay [11]. The concentration for a half-maximal effect (EC50) in assay [12] is 139 nM; in assay [13], 780 nM; in assay [14], 285 nM; in assay [15], 720 nM; in [16], 194 nM; in assay [17], 570 nM.
On to `Cc1nnn2c1-c1ccccc1N(c1ccc(Cl)cc1)CC2CCO` (stereo not drawn), for which the IC50 amounted to 36 nM in assay [1]; 340 nM in assay [4]; 45 nM in assay [5]; 52 nM in [2]; 44 nM in assay [3].
Regarding `Cc1nnn2c1-c1ccc(Cn3cccn3)cc1N(c1ccc(Cl)cc1)CC2`, the IC50 in assay [1] came to 38 nM; in [2], 45 nM; in [3] it was 52 nM.
As to `Cc1nnn2c1-c1ccc(C(=O)O)cc1N(c1ccc(Cl)cc1)CC2`, the IC50 was determined as 185 nM in [4], 50 nM in assay [5] and 16 nM in assay [3].
Turning to `Cc1nnn2c1-c1ccc(C(=O)NCc3ccccc3)cc1N(c1ccc(Cl)cc1)CC2`, the IC50 in assay [1] turned out to be 15 nM; in assay [2], 35 nM.
Regarding `Cc1nnn2c1-c1ccccc1N(c1ccc(Cl)cc1)C[C@H]2C`, the IC50 in assay [4] came to 38 nM; in assay [5], 25 nM.
Regarding `Cc1nnn2c1-c1ccc(C#N)cc1N(c1ccc(Cl)cc1)CC2`, the IC50 in assay [1] is 13 nM; in [2], 11 nM.
For the molecule `Cc1nnn2c1-c1ccccc1N(c1ccccc1)C(=O)C2`, the IC50 in assay [1], in [4], in assay [5], in assay [2] and in assay [3] was above 10000 nM throughout.
As to `Cc1nnn2c1-c1ccccc1N(Cc1cccc(Br)c1)CC2`, the IC50 in assay [1] was 17 nM; in assay [4], 129 nM; in assay [5] it was 44 nM; in [2], 29 nM; in assay [3] it was 21 nM.
As to `Cc1nnn2c1-c1ccc(C(=O)N[C@@H](C)c3ccc(F)cc3)cc1N(c1ccc(Cl)cc1)CC2`, it took 23 nM to reach half-maximal inhibition in [3] (IC50).
As to `Cc1nnn2c1-c1ccc(C(=O)NS(C)(=O)=O)cc1N(c1ccc(Cl)cc1)CC2`, the IC50 in assay [1] is 7 nM; in assay [2], 13 nM.
On to `Cc1nnn2c1-c1ccc(-c3ccc(N)nc3)cc1N(c1ccc(Cl)cc1)CC2`, for which the IC50 in assay [1] turned out to be 6 nM; in assay [2] it was 13 nM; in assay [3], 9 nM. For the same molecule, the Ka was 2.9 ×10⁵ /M/s in assay [18] and 2.62 ×10⁵ /M/s in assay [19]. Moreover, the EC50 in assay [6] is 77 nM; in assay [7] it was 1280 nM; in assay [8], above 10000 nM; in [9], 1360 nM; in assay [10], 140 nM; in [11], 631 nM. Moreover, the EC50 stood at 152 nM in assay [12]; 560 nM in assay [13]; 561 nM in assay [14]; 400 nM in [15]; 166 nM in assay [16]; 977 nM in assay [17].
Turning to `Cc1sc2c(c1C)C(c1ccc(Cl)cc1)=NC(CC(=O)OC(C)(C)C)c1nnc(C)n1-2` (stereo not drawn), the EC50 is 64 nM in [6]; 284 nM in assay [7]; above 10000 nM in [8]; 2040 nM in assay [9]; 39 nM in [10]; 258 nM in assay [11]. Also, the EC50 in assay [12] was 51 nM; in [13] it was 330 nM; in [14] it was 279 nM; in assay [15], 180 nM; in [16], 122 nM; in [17] it was 660 nM.
